Measured values taken from the NIST ThermoML archive (doi:10.1021/je700322p).

Conditions: Liquid

CCO [ethanol]
Conditions | vapor or sublimation pressure [kPa]
321 K | 26.41
324 K | 30.53
327 K | 35.19
330 K | 40.44
333 K | 46.34
336 K | 52.96
339 K | 60.35
342 K | 68.6
345 K | 77.77
348 K | 87.96
351 K | 99.24
354 K | 111.7
357 K | 125.44
359 K | 135.37

CCOC(C)=O [ethyl acetate]
Conditions | vapor or sublimation pressure [kPa]
310 K | 21.72
313 K | 24.78
316 K | 28.18
319 K | 31.95
322 K | 36.12
325 K | 40.73
328 K | 45.8
331 K | 51.36
334 K | 57.46
337 K | 64.13
340 K | 71.4
343 K | 79.32
346 K | 87.93
349 K | 97.26
352 K | 107.36
355 K | 118.27
358 K | 130.03
359 K | 134.15
